Paper PMC6020026 (Bioorganic & medicinal chemistry letters, 2017)

Assay: Cytotoxicity on differentiated THP-1 macrophages
Format: cell-based
Conditions: human
[1] = differentiated THP-1 macrophages

Row | Compound | CC50 [1] [µM] | CC50 [µM]
1 | CC(C)(C)c1ccc(C(=O)/C=C/c2ccc([N+](=O)[O-])s2)cc1 [LabMol-86] | 8.4 | 
2 | O=C(/C=C/c1ccc([N+](=O)[O-])o1)c1ccc(C2CCCCC2)cc1 [LabMol-72] | 31.1 | 
3 | CSc1ccc(C(=O)/C=C/c2ccc([N+](=O)[O-])o2)cc1 [LabMol-92] |  | 13.1
4 | O=C(/C=C/c1ccc([N+](=O)[O-])o1)c1ccc(I)cc1 [LabMol-78] | 49.5 | 
5 | C[C@@H]1[C@H](O)[C@@H](C)/C=C/C=C/C=C/C=C/C=C/C=C/C=C/[C@H](O[C@@H]2O[C@H](C)[C@@H](O)[C@H](N)[C@@H]2O)C[C@@H]2O[C@](O)(C[C@@H](O)C[C@@H](O)[C@H](O)CC[C@@H](O)C[C@@H](O)CC(=O)O[C@H]1C)C[C@H](O)[C@H]2C(=O)O [Amph.B, Amphotericin B, reference compound] | 9.8 | 
